The molecules below were run on pigweed (Amaranthus retroflexus) (assay: Test A preemergence, pigweed). Settings: 125 g ai/ha, 0 to 100 scale.
Format: in vivo
Excerpt: (§1) Seeds of plant species selected from barnyardgrass (Echinochloa crus-galli), crabgrass (large crabgrass, Digitaria sanguinalis), kochia (Kochia scoparia), ragweed (common ragweed, Ambrosia elatior), morningglory (Ipomoea spp.), velvetleaf (Abutilon theophrasti), ryegrass, It. (Italian ryegrass, Lolium multiflorum), foxtail, giant (giant foxtail, Setaria faberii), wheat (Triticum aestivum), corn (Zea mays), and pigweed (Amaranthus retroflexus), were planted into a blend of loam soil and sand and treated preemergence with a directed soil spray using test chemicals formulated in a non-phytotoxic solvent mixture which included a surfactant. At the same time, plants selected from these crop and weed species and also blackgrass (Alopecurus myosuroides), and galium (catchweed bedstraw, Galium aparine), were planted in pots containing the same blend of loam soil and sand and treated with postemergence applications of test chemicals formulated in the same manner. Plants ranged in height from 2 to 10 cm and were in the one- to two-leaf stage for the postemergence treatment. Treated plants and untreated controls were maintained in a greenhouse for approximately 10 d, after which time all treated plants were compared to untreated controls and visually evaluated for injury. Plant response ratings, summarized in Table A, are based on a 0 to 100 scale where 0 is no effect and 100 is complete control. A dash (-) response means no test result.

SMILES | Plant response rating, Pigweed
O=C1NCC(/C=C/c2cccc(F)c2)C1C(=O)Nc1ccccc1F (stereo not shown) [Compound 24] | 0

Same assay, conditions: 500 g ai/ha, 0 to 100 scale

SMILES | Plant response rating, Pigweed
O=C1NCC(/C=C/c2cccc(F)c2)C1C(=O)Nc1ccccc1F (stereo not shown) [Compound 24] | 0

Each molecule was assayed on barnyardgrass (Echinochloa crus-galli) (assay: Test A postemergence, barnyardgrass). Settings: 125 g ai/ha, 0 to 100 scale.
Format: in vivo
Excerpt: as §1

SMILES | Plant response rating, Barnyardgrass
O=C1NCC(/C=C/c2cccc(F)c2)C1C(=O)Nc1ccccc1F (stereo not shown) [Compound 24] | 0

Same assay, conditions: 500 g ai/ha, 0 to 100 scale

SMILES | Plant response rating, Barnyardgrass
O=C1NCC(/C=C/c2cccc(F)c2)C1C(=O)Nc1ccccc1F (stereo not shown) [Compound 24] | 70

These molecules were tested on ryegrass, It. (Italian ryegrass, Lolium multiflorum) (assay: Test A preemergence, ryegrass, It.). Settings: 125 g ai/ha, 0 to 100 scale.
Format: in vivo
Excerpt: as §1

SMILES | Plant response rating, Ryegrass, It.
O=C1NCC(/C=C/c2cccc(F)c2)C1C(=O)Nc1ccccc1F (stereo not shown) [Compound 24] | 0

Same assay, conditions: 500 g ai/ha, 0 to 100 scale

SMILES | Plant response rating, Ryegrass, It.
O=C1NCC(/C=C/c2cccc(F)c2)C1C(=O)Nc1ccccc1F (stereo not shown) [Compound 24] | 0

What follows are molecules tested on pigweed (Amaranthus retroflexus) (assay: Test A postemergence, pigweed). Settings: 125 g ai/ha, 0 to 100 scale.
Format: in vivo
Excerpt: as §1

SMILES | Plant response rating, Pigweed
O=C1NCC(/C=C/c2cccc(F)c2)C1C(=O)Nc1ccccc1F (stereo not shown) [Compound 24] | 0

Same assay, conditions: 500 g ai/ha, 0 to 100 scale

SMILES | Plant response rating, Pigweed
O=C1NCC(/C=C/c2cccc(F)c2)C1C(=O)Nc1ccccc1F (stereo not shown) [Compound 24] | 0

What follows are molecules tested on ducksalad (Heteranthera limosa) (assay: Test B flooded paddy test, ducksalad). Settings: Flood, 250 g ai/ha; scale of 0 to 100 where 0 is no effect and 100 is complete control; 13 to 15 d.
Format: in vivo
Procedure: (§2) Plant species in the flooded paddy test selected from rice (Oryza sativa), sedge, umbrella (small-flower umbrella sedge, Cyperus difformis), ducksalad (Heteranthera limosa), and barnyardgrass (Echinochloa crus-galli) were grown to the 2-leaf stage for testing. At time of treatment, test pots were flooded to 3 cm above the soil surface, treated by application of test compounds directly to the paddy water, and then maintained at that water depth for the duration of the test. Treated plants and controls were maintained in a greenhouse for 13 to 15 d, after which time all species were compared to controls and visually evaluated. Plant response ratings, summarized in Table B, are based on a scale of 0 to 100 where 0 is no effect and 100 is complete control. A dash (-) response means no test result.

SMILES | Plant response rating, Ducksalad
O=C1NCC(/C=C/c2cccc(F)c2)C1C(=O)Nc1ccccc1F (stereo not shown) [Compound 24] | 90

Each molecule was assayed on sedge, umbrella (small-flower umbrella sedge, Cyperus difformis) (assay: Test B flooded paddy test, sedge, umbrella). Settings: Flood, 250 g ai/ha; scale of 0 to 100 where 0 is no effect and 100 is complete control; 13 to 15 d.
Format: in vivo
Procedure: as §2

SMILES | Plant response rating, Sedge, Umbrella
O=C1NCC(/C=C/c2cccc(F)c2)C1C(=O)Nc1ccccc1F (stereo not shown) [Compound 24] | 0

Each molecule was assayed on galium (catchweed bedstraw, Galium aparine) (assay: Test A postemergence, galium). Settings: 125 g ai/ha, 0 to 100 scale.
Format: in vivo
Excerpt: as §1

SMILES | Plant response rating, Galium
O=C1NCC(/C=C/c2cccc(F)c2)C1C(=O)Nc1ccccc1F (stereo not shown) [Compound 24] | 0

Same assay, conditions: 500 g ai/ha, 0 to 100 scale

SMILES | Plant response rating, Galium
O=C1NCC(/C=C/c2cccc(F)c2)C1C(=O)Nc1ccccc1F (stereo not shown) [Compound 24] | 0

What follows are molecules tested on foxtail, giant (giant foxtail, Setaria faberii) (assay: Test A preemergence, foxtail, giant). Settings: 125 g ai/ha, 0 to 100 scale.
Format: in vivo
Excerpt: as §1

SMILES | Plant response rating, Foxtail, Giant
O=C1NCC(/C=C/c2cccc(F)c2)C1C(=O)Nc1ccccc1F (stereo not shown) [Compound 24] | 60

Same assay, conditions: 500 g ai/ha, 0 to 100 scale

SMILES | Plant response rating, Foxtail, Giant
O=C1NCC(/C=C/c2cccc(F)c2)C1C(=O)Nc1ccccc1F (stereo not shown) [Compound 24] | 90

Each molecule was assayed on blackgrass (Alopecurus myosuroides) (assay: Test A postemergence, blackgrass). Settings: 125 g ai/ha, 0 to 100 scale.
Format: in vivo
Excerpt: as §1

SMILES | Plant response rating, Blackgrass
O=C1NCC(/C=C/c2cccc(F)c2)C1C(=O)Nc1ccccc1F (stereo not shown) [Compound 24] | 0

Same assay, conditions: 500 g ai/ha, 0 to 100 scale

SMILES | Plant response rating, Blackgrass
O=C1NCC(/C=C/c2cccc(F)c2)C1C(=O)Nc1ccccc1F (stereo not shown) [Compound 24] | 0

Each molecule was assayed on rice (Oryza sativa) (assay: Test B flooded paddy test, rice). Settings: Flood, 250 g ai/ha; scale of 0 to 100 where 0 is no effect and 100 is complete control; 13 to 15 d.
Format: in vivo
Procedure: as §2

SMILES | Plant response rating, Rice
O=C1NCC(/C=C/c2cccc(F)c2)C1C(=O)Nc1ccccc1F (stereo not shown) [Compound 24] | 0

What follows are molecules tested on ragweed (common ragweed, Ambrosia elatior) (assay: Test A postemergence, ragweed). Settings: 125 g ai/ha, 0 to 100 scale.
Format: in vivo
Excerpt: as §1

SMILES | Plant response rating, Ragweed
O=C1NCC(/C=C/c2cccc(F)c2)C1C(=O)Nc1ccccc1F (stereo not shown) [Compound 24] | 0

Same assay, conditions: 500 g ai/ha, 0 to 100 scale

SMILES | Plant response rating, Ragweed
O=C1NCC(/C=C/c2cccc(F)c2)C1C(=O)Nc1ccccc1F (stereo not shown) [Compound 24] | 0

What follows are molecules tested on foxtail, giant (giant foxtail, Setaria faberii) (assay: Test A postemergence, foxtail, giant). Settings: 125 g ai/ha, 0 to 100 scale.
Format: in vivo
Excerpt: as §1

SMILES | Plant response rating, Foxtail, Giant
O=C1NCC(/C=C/c2cccc(F)c2)C1C(=O)Nc1ccccc1F (stereo not shown) [Compound 24] | 30

Same assay, conditions: 500 g ai/ha, 0 to 100 scale

SMILES | Plant response rating, Foxtail, Giant
O=C1NCC(/C=C/c2cccc(F)c2)C1C(=O)Nc1ccccc1F (stereo not shown) [Compound 24] | 80

What follows are molecules tested on barnyardgrass (Echinochloa crus-galli) (assay: Test A preemergence, barnyardgrass). Settings: 125 g ai/ha, 0 to 100 scale.
Format: in vivo
Excerpt: as §1

SMILES | Plant response rating, Barnyardgrass
O=C1NCC(/C=C/c2cccc(F)c2)C1C(=O)Nc1ccccc1F (stereo not shown) [Compound 24] | 30

Same assay, conditions: 500 g ai/ha, 0 to 100 scale

SMILES | Plant response rating, Barnyardgrass
O=C1NCC(/C=C/c2cccc(F)c2)C1C(=O)Nc1ccccc1F (stereo not shown) [Compound 24] | 70

What follows are molecules tested on ragweed (common ragweed, Ambrosia elatior) (assay: Test A preemergence, ragweed). Settings: 125 g ai/ha, 0 to 100 scale.
Format: in vivo
Excerpt: as §1

SMILES | Plant response rating, Ragweed
O=C1NCC(/C=C/c2cccc(F)c2)C1C(=O)Nc1ccccc1F (stereo not shown) [Compound 24] | 0

Same assay, conditions: 500 g ai/ha, 0 to 100 scale

SMILES | Plant response rating, Ragweed
O=C1NCC(/C=C/c2cccc(F)c2)C1C(=O)Nc1ccccc1F (stereo not shown) [Compound 24] | 30

The molecules below were run on kochia (Kochia scoparia) (assay: Test A preemergence, kochia). Settings: 125 g ai/ha, 0 to 100 scale.
Format: in vivo
Excerpt: as §1

SMILES | Plant response rating, Kochia
O=C1NCC(/C=C/c2cccc(F)c2)C1C(=O)Nc1ccccc1F (stereo not shown) [Compound 24] | 0

Same assay, conditions: 500 g ai/ha, 0 to 100 scale

SMILES | Plant response rating, Kochia
O=C1NCC(/C=C/c2cccc(F)c2)C1C(=O)Nc1ccccc1F (stereo not shown) [Compound 24] | 20

These molecules were tested on barnyardgrass (Echinochloa crus-galli) (assay: Test B flooded paddy test, barnyardgrass). Settings: Flood, 250 g ai/ha; scale of 0 to 100 where 0 is no effect and 100 is complete control; 13 to 15 d.
Format: in vivo
Procedure: as §2

SMILES | Plant response rating, Barnyardgrass
O=C1NCC(/C=C/c2cccc(F)c2)C1C(=O)Nc1ccccc1F (stereo not shown) [Compound 24] | 70

The molecules below were run on wheat (Triticum aestivum) (assay: Test A postemergence, wheat). Settings: 125 g ai/ha, 0 to 100 scale.
Format: in vivo
Excerpt: as §1

SMILES | Plant response rating, Wheat
O=C1NCC(/C=C/c2cccc(F)c2)C1C(=O)Nc1ccccc1F (stereo not shown) [Compound 24] | 0

Same assay, conditions: 500 g ai/ha, 0 to 100 scale

SMILES | Plant response rating, Wheat
O=C1NCC(/C=C/c2cccc(F)c2)C1C(=O)Nc1ccccc1F (stereo not shown) [Compound 24] | 0

What follows are molecules tested on ryegrass, It. (Italian ryegrass, Lolium multiflorum) (assay: Test A postemergence, ryegrass, It.). Settings: 125 g ai/ha, 0 to 100 scale.
Format: in vivo
Excerpt: as §1

SMILES | Plant response rating, Ryegrass, It.
O=C1NCC(/C=C/c2cccc(F)c2)C1C(=O)Nc1ccccc1F (stereo not shown) [Compound 24] | 0

Same assay, conditions: 500 g ai/ha, 0 to 100 scale

SMILES | Plant response rating, Ryegrass, It.
O=C1NCC(/C=C/c2cccc(F)c2)C1C(=O)Nc1ccccc1F (stereo not shown) [Compound 24] | 0

These molecules were tested on corn (Zea mays) (assay: Test A postemergence, corn). Settings: 125 g ai/ha, 0 to 100 scale.
Format: in vivo
Excerpt: as §1

SMILES | Plant response rating, Corn
O=C1NCC(/C=C/c2cccc(F)c2)C1C(=O)Nc1ccccc1F (stereo not shown) [Compound 24] | 0

Same assay, conditions: 500 g ai/ha, 0 to 100 scale

SMILES | Plant response rating, Corn
O=C1NCC(/C=C/c2cccc(F)c2)C1C(=O)Nc1ccccc1F (stereo not shown) [Compound 24] | 0

From US10906873B2, “Substituted cyclic amides as herbicides” (FMC Corporation, priority 2015, dated 2021)
